Assay results published in ChEMBL document CHEMBL1201862, “PubChem BioAssay data set” (2004).
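Briefly, cells in 96-well plates were exposed to five compound concentrations for 48 h, and endpoints were estimated by linear interpolation. GI50 = concentration required for 50% inhibition of growth.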 Activity calls are given as the source filed them. Cut-off read from the data, not from the text of the source: active = GI50 up to about 1.1 µM and inactive = higher.

Columns and labels:
Assay in all cases: growth of human tumour cells (NCI), 48 h
ACHN = system: ACHN
COLO 205 = system: COLO 205
EKVX = system: EKVX
HCC 2998 = system: HCC 2998
IGROV-1 = system: IGROV-1
MCF7 = system: MCF7
MDA-MB-231 = system: MDA-MB-231
Malme-3M = system: Malme-3M
NCI-H460 = system: NCI-H460
NCI-H522 = system: NCI-H522
OVCAR-3 = system: OVCAR-3
OVCAR-4 = system: OVCAR-4
PC-3 = system: PC-3
RPMI-8226 = system: RPMI-8226
SK-MEL-2 = system: SK-MEL-2
SN12C = system: SN12C
U-251 = system: U-251
UO-31 = system: UO-31
CCRF-CEM = system: CCRF-CEM

Row | Structure (SMILES) | GI50 (ACHN) | GI50 (COLO 205) | GI50 (EKVX) | GI50 (HCC 2998) | GI50 (IGROV-1) | GI50 (MCF7) | GI50 (MDA-MB-231) | GI50 (Malme-3M) | GI50 (NCI-H460) | GI50 (NCI-H522) | GI50 (OVCAR-3) | GI50 (OVCAR-4) | GI50 (PC-3) | GI50 (RPMI-8226) | GI50 (SK-MEL-2) | GI50 (SN12C) | GI50 (U-251) | GI50 (UO-31) | GI50 (CCRF-CEM)
1 | O=C(O)c1ccccc1-c1ccccc1C(=O)Nc1ccc2c(c1)Cc1ccccc1-2 | 30.3 µM (inactive) | 17.2 µM (inactive) | 22.1 µM (inactive) | 17.8 µM (inactive) | 49.3 µM (inactive) | 28.1 µM (inactive) | 60.5 µM (inactive) | 42.5 µM (inactive) | 19.2 µM (inactive) | 21.3 µM (inactive) | 25.3 µM (inactive) | 60.1 µM (inactive) | 41.1 µM (inactive) | 23.4 µM (inactive) | 22.6 µM (inactive) | 29.3 µM (inactive) | 28.6 µM (inactive) | 30 µM (inactive) | 
2 | COC(=O)C1C(=O)N(C)C(=O)N2CCCC12 (configuration not stated) | > 100 µM (inactive) | > 100 µM (inactive) | > 100 µM (inactive) | > 100 µM (inactive) | > 100 µM (inactive) | > 100 µM (inactive) | > 100 µM (inactive) | > 100 µM (inactive) | > 100 µM (inactive) | > 100 µM (inactive) | > 100 µM (inactive) | > 100 µM (inactive) | > 100 µM (inactive) | > 100 µM (inactive) | > 100 µM (inactive) |  | > 100 µM (inactive) | > 100 µM (inactive) | > 100 µM (inactive)
3 | CC(=O)Oc1ccc(N2C(=O)C3c4[nH]c5ccccc5c4C4CCC(C(C)(C)C)CC4C3C2=O)cc1 (configuration not stated) | 3.55 µM (inactive) | 4.71 µM (inactive) | 3.07 µM (inactive) | 2.68 µM (inactive) | 5.97 µM (inactive) | 2.88 µM (inactive) | 2.28 µM (inactive) | 6.56 µM (inactive) | 2.55 µM (inactive) | 4.45 µM (inactive) | 2.69 µM (inactive) |  | 2.79 µM (inactive) | 6.68 µM (inactive) | 5.13 µM (inactive) | 2.14 µM (inactive) | 3.27 µM (inactive) | 5.35 µM (inactive) | 10 µM (inactive)
4 | C=C1C(=O)OC2C1C(OC(=O)/C(C)=C/C)CC(O)(CCl)C1C(O)C3OC3(C)C21O (configuration not stated) | 19.9 µM (inactive) | 13.3 µM (inactive) | > 50 µM (inactive) | > 50 µM (inactive) | > 50 µM (inactive) | 18.2 µM (inactive) | > 50 µM (inactive) | 0.735 µM (active) | > 50 µM (inactive) | 0.7 µM (active) | 27.5 µM (inactive) | > 50 µM (inactive) | > 50 µM (inactive) | 16.1 µM (inactive) | > 50 µM (inactive) | > 50 µM (inactive) | > 50 µM (inactive) |  | 12.4 µM (inactive)
5 | C[C@@H]1CC[C@@]2(OC1)O[C@H]1C[C@H]3[C@@H]4CC[C@H]5C[C@@H](OC6OC(CO)C(OC7OC(CO)C(O)C(OC8OCC(O)C(O)C8O)C7OC7OC(CO)C(O)C(O)C7O)C(O)C6O)[C@H](O)C[C@]5(C)[C@H]4CC[C@]3(C)[C@H]1[C@@H]2C (some centres not stated) | 2.75 µM (inactive) | 2.46 µM (inactive) | 5.35 µM (inactive) | 12.3 µM (inactive) | 2.16 µM (inactive) | 0.804 µM (active) | 1.76 µM (inactive) | 15.2 µM (inactive) | 1.85 µM (inactive) | 0.426 µM (active) | 2.88 µM (inactive) | 1.95 µM (inactive) | 3.15 µM (inactive) | 1.85 µM (inactive) | 9.08 µM (inactive) |  | 3.13 µM (inactive) | 4.52 µM (inactive) | 0.693 µM (active)
6 | CC1(C)N=C(N)N=C(N)N1c1cccc(CSc2ccccc2)c1 | 34.4 µM (inactive) | 0.794 µM (active) | 23 µM (inactive) | 73.1 µM (inactive) | 0.0301 µM (active) | 0.597 µM (active) | > 100 µM (inactive) | 8.89 µM (inactive) | 0.0404 µM (active) | 0.318 µM (active) | 0.991 µM (active) | 2.29 µM (inactive) | 3.73 µM (inactive) | 0.944 µM (active) | 18.4 µM (inactive) | 0.0838 µM (active) | 0.045 µM (active) | > 100 µM (inactive) | 
7 | C/C(Cl)=N\OC(=O)Nc1ccc([N+](=O)[O-])cc1 | 4.73 µM (inactive) | 2.49 µM (inactive) | 19.3 µM (inactive) | 15.6 µM (inactive) | 17.5 µM (inactive) | 3.08 µM (inactive) | 18.7 µM (inactive) | 3.01 µM (inactive) | 18.7 µM (inactive) | 1.99 µM (inactive) | 2.12 µM (inactive) | 13.7 µM (inactive) | 16.2 µM (inactive) | 2.36 µM (inactive) | 17.5 µM (inactive) | 12.4 µM (inactive) | 17.6 µM (inactive) | 5.6 µM (inactive) | 2.77 µM (inactive)
8 | Cc1ccc2c(c1)C(=O)C1(C2)Cc2cccc(C)c2C1=O (configuration not stated) | > 100 µM (inactive) | > 100 µM (inactive) | > 100 µM (inactive) | > 100 µM (inactive) | > 100 µM (inactive) | > 100 µM (inactive) | > 100 µM (inactive) | > 100 µM (inactive) | > 100 µM (inactive) | > 100 µM (inactive) | > 100 µM (inactive) | > 100 µM (inactive) | > 100 µM (inactive) | > 100 µM (inactive) |  | > 100 µM (inactive) | > 100 µM (inactive) | 4.41 µM (inactive) | > 100 µM (inactive)
9 | O=C(Nc1ccc(S(=O)(=O)/N=c2\ncccn2C(=O)C(C(F)(F)F)C(F)(F)F)cc1)C(C(F)(F)F)C(F)(F)F | > 100 µM (inactive) | > 100 µM (inactive) | > 100 µM (inactive) | > 100 µM (inactive) | > 100 µM (inactive) | > 100 µM (inactive) | > 100 µM (inactive) | 49.2 µM (inactive) | > 100 µM (inactive) | > 100 µM (inactive) | > 100 µM (inactive) | > 100 µM (inactive) | > 100 µM (inactive) | > 100 µM (inactive) | > 100 µM (inactive) | > 100 µM (inactive) | > 100 µM (inactive) |  | > 100 µM (inactive)
10 | O=C1C(NCCc2ccc(O)c([N+](=O)[O-])c2)=CC(=O)c2[nH]cnc21 | 44.3 µM (inactive) | 43.8 µM (inactive) | 27.4 µM (inactive) | 51.5 µM (inactive) | 29.9 µM (inactive) | 32 µM (inactive) | 22.7 µM (inactive) | 5.79 µM (inactive) | 24.8 µM (inactive) | 18.6 µM (inactive) | 15.2 µM (inactive) |  | 67 µM (inactive) | 32.7 µM (inactive) | 16 µM (inactive) | 26.2 µM (inactive) | 32.3 µM (inactive) | 76.9 µM (inactive) | 
11 | COc1cc2nc(-c3cccs3)nc(Nc3ccccc3C(=O)NN)c2cc1OC | > 100 µM (inactive) | 67.3 µM (inactive) | > 100 µM (inactive) | > 100 µM (inactive) | > 100 µM (inactive) | > 100 µM (inactive) | > 100 µM (inactive) | > 100 µM (inactive) | > 100 µM (inactive) | > 100 µM (inactive) | 57.5 µM (inactive) | 27.8 µM (inactive) | > 100 µM (inactive) | > 100 µM (inactive) | > 100 µM (inactive) | > 100 µM (inactive) | 96.2 µM (inactive) | > 100 µM (inactive) | > 100 µM (inactive)
12 | Cc1ccc(C(=O)Nc2ccc(S(=O)(=O)O)c3cc(S(=O)(=O)O)cc(S(=O)(=O)O)c23)cc1NC(=O)Nc1cc(C(=O)Nc2ccc(S(=O)(=O)O)c3cc(S(=O)(=O)O)cc(S(=O)(=O)O)c23)ccc1C | > 87.5 µM (inactive) |  |  | > 87.5 µM (inactive) | > 87.5 µM (inactive) | > 87.5 µM (inactive) | > 87.5 µM (inactive) | > 87.5 µM (inactive) | > 87.5 µM (inactive) | > 87.5 µM (inactive) | > 87.5 µM (inactive) | > 87.5 µM (inactive) | > 87.5 µM (inactive) | > 87.5 µM (inactive) | > 87.5 µM (inactive) | > 87.5 µM (inactive) | > 87.5 µM (inactive) | > 87.5 µM (inactive) | > 87.5 µM (inactive)
13 | COc1cc(C[C@@H](C)N)cc(OC)c1 | > 100 µM (inactive) | > 100 µM (inactive) |  | > 100 µM (inactive) | > 100 µM (inactive) | > 100 µM (inactive) | > 100 µM (inactive) | > 100 µM (inactive) | > 100 µM (inactive) | > 100 µM (inactive) | > 100 µM (inactive) | > 100 µM (inactive) | > 100 µM (inactive) | > 100 µM (inactive) | > 100 µM (inactive) | > 100 µM (inactive) | > 100 µM (inactive) | > 100 µM (inactive) | > 100 µM (inactive)
14 | Cc1c([C@H](C)[C@@H]2NC[C@@H](C)C[C@H]2O)ccc2c1C[C@H]1[C@H]2CC=C2C[C@@H](O)CC[C@@]21C [VERATRAMINE] | 15 µM (inactive) | 14.4 µM (inactive) | 2.34 µM (inactive) | 13.2 µM (inactive) | 16.1 µM (inactive) | 15.4 µM (inactive) | 16.4 µM (inactive) | 16.2 µM (inactive) | 16.9 µM (inactive) | 13 µM (inactive) | 15.6 µM (inactive) | 12.6 µM (inactive) | 11.5 µM (inactive) | 3.29 µM (inactive) |  | 20.4 µM (inactive) | 14 µM (inactive) | 14 µM (inactive) | 16.1 µM (inactive)
